The target in assay [1] is T1, Indoleamine 2,3-dioxygenase 2 (Homo sapiens, UniProt Q6ZQW0).
T1 sequence (Q6ZQW0 whole entry): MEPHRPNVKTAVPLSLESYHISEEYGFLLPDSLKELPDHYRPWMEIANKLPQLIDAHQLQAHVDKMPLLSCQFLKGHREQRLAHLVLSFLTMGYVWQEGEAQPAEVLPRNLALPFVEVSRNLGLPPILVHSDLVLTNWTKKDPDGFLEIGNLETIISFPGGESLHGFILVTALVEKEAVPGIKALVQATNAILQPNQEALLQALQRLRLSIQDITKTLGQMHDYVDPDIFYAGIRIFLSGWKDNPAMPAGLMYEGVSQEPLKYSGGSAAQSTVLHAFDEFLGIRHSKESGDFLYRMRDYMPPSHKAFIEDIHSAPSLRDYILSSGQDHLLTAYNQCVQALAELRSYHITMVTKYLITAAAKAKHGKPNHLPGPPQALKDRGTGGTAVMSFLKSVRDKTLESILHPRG
Nature of the assay: Inhibition of human IDO2 using Trp as substrate after 90 mins by Bridge-IT tryptophan fluorescence assay.

Assay [2] concerns the target T2, Tryptophan 2,3-dioxygenase (Homo sapiens, UniProt P48775). Nature of the assay: Inhibition of human TDO using Trp as substrate after 90 mins by Bridge-IT tryptophan fluorescence assay.
For assay [3], the target named is Indoleamine 2,3-dioxygenase 1 (Mus musculus, UniProt P28776). Put plainly: Inhibition of IDO1 in mouse P815 Clone 12 cells assessed as reduction in kynurenine production incubated for 16 to 18 hrs. It is filed as cell-based.
The target in assay [4] is T2, Tryptophan 2,3-dioxygenase. Nature of the assay: Inhibition of TDO (unknown origin).
Assay [5] has as its target T3, Indoleamine 2,3-dioxygenase 1 (Homo sapiens, UniProt P14902). Put plainly: Inhibition of IDO1 in human HeLa assessed as reduction in kynurenine production. It is filed as cell-based.
Assay [6] has as its target T3, Indoleamine 2,3-dioxygenase 1. Nature of the assay: Inhibition of human IDO1 assessed as reduction in kynurenine production.
For assay [7] the target is unchanged. Nature of the assay: Inhibition of IDO1 (unknown origin) assessed as reduction in kynurenine production by spectraphotometric assay.
In assay [8] the target is T2, Tryptophan 2,3-dioxygenase. Nature of the assay: Inhibition of human TDO expressed in T-REx-293 cells. Format: cell-based.
Assay [9] concerns the target T3, Indoleamine 2,3-dioxygenase 1. Nature of the assay: Inhibition of IDO1 (unknown origin) after 60 mins.
The target is the same in assay [10]. Nature of the assay: Inhibition of IDO1 in human HeLa cells assessed as reduction in kynurenine production. Format: cell-based.

Molecules are shown by their SMILES.

As a reminder, the IC50 is the midpoint of a concentration-inhibition curve.

T2 sequence (P48775 whole entry): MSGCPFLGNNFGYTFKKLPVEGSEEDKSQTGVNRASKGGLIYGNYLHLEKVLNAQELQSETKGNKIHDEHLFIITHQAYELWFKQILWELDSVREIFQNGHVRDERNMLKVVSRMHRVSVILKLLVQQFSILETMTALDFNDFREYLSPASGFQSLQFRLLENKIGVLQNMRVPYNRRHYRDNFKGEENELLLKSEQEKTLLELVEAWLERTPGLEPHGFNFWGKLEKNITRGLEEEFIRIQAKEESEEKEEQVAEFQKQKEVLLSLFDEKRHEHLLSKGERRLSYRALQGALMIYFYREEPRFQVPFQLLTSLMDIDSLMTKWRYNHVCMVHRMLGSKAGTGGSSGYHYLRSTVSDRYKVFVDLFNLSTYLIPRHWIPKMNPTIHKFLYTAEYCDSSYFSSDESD
T3 sequence (P14902 whole entry): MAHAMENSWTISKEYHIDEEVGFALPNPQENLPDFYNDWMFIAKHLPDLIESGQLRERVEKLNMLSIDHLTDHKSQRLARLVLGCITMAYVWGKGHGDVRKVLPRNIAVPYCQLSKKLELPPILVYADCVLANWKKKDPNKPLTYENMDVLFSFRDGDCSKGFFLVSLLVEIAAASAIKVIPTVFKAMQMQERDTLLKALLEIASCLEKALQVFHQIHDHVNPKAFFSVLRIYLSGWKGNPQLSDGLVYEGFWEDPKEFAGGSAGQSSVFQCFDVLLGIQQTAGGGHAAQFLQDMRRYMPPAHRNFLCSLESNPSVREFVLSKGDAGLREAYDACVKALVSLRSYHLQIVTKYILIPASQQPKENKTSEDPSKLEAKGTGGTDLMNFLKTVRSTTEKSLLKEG
Chain of Indoleamine 2,3-dioxygenase 1 (Mus musculus, UniProt P28776) (P28776 whole entry): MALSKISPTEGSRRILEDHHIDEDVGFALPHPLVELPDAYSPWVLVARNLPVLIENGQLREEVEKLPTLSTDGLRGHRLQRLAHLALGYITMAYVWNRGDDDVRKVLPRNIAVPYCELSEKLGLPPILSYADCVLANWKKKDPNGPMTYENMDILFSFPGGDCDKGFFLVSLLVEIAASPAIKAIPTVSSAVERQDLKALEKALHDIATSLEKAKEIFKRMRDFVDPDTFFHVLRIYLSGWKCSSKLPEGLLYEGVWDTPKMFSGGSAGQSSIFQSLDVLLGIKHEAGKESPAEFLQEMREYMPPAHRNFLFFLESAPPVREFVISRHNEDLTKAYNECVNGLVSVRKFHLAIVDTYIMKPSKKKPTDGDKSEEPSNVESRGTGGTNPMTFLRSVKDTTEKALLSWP

For `Cc1ccc(-c2csc3nnc(SCC(=O)Nc4ccc5c(c4)OCO5)n23)cc1`, the IC50 in [1] is > 250000 nM; in assay [2] it was > 62500 nM. Turning to `O=C1CC(c2c[nH]c3ccc(F)cc23)C(=O)N1` (stereo unspecified) [PF-06840003], the IC50 in assay [3] is 94 nM; in [4], > 50000 nM.

Take `NS(=O)(=O)NC1(CCNc2nonc2/C(=N/O)Nc2ccc(F)c(Br)c2)CC1`: the IC50 in assay [5] came to 3 nM; in assay [6], 18 nM. For `O/N=C(/CCC1CCCCC1)Nc1cccc(Cl)c1`, the IC50 in assay [7] is < 1000 nM. With `O[C@H](C[C@H]1c2c(F)cccc2-c2cncn21)[C@H]1CC[C@H](O)CC1` [NAVOXIMOD], the IC50 in [4] came to 140 nM; in assay [8], 1500 nM.

Turning to `CS(=O)(=NC#N)NCCNc1nonc1/C(=N/O)Nc1ccc(F)c(Br)c1` (stereo unspecified), the IC50 turned out to be 11 nM in assay [9] and 1.8 nM in [10].

These data come from ChEMBL document CHEMBL4138229, “Recent discovery of indoleamine-2,3-dioxygenase 1 inhibitors targeting cancer immunotherapy” (Eur J Med Chem, 2018).
